PMC4136845, “Evaluation of Antimalarial Activity and Toxicity of a New Primaquine Prodrug” (PLoS ONE, 2014)
Values joined by “and” are separate entries in the source; they are usually repeats but may differ in a detail not shown here. Equal entries are not always repeated. Marks after values point to notes of the source that are not given here.

Tests used:
[1] = system: male Wistar rats; assay: Histopathological evaluation of rat liver and kidney; details: multiple doses
Experimental: (§1) The biochemical, hematological and histopathological analyses were carried out in male Wistar rats (weighing 200–250 g). They were housed in wire cages, five animals per cage, with free access to food and water. The study protocol was approved by The Research Ethics Committee of the School of Pharmaceutical Sciences, UNESP, Araraquara (process 06/2009). […] After treatment with the drugs, the animals were decapitated for collection of blood and samples of liver and kidneys (preserved in 10% formaldehyde).
The liver and kidney were removed from each rat to perform the histopathological evaluation. Tissue pieces were fixed in 10% formaldehyde and embedded in paraffin. Each organ was then cut into 4-µm thick sections and subjected to standard hematoxylin/eosin staining. Hepatic glycogen staining in sections was carried out using the standard periodic acid-Schiff (PAS) reaction, followed by hematoxylin counterstaining, and the periportal and centrilobular regions of the liver were analyzed according to Thoolen et al.. Five periportal regions and five centrilobular regions were photographed in each animal, for a total of 300 photographs, and these images were adjusted using Pixelmator software (2.2.1). Nuclear hepatocyte glycogen levels were classified as: A- PAS<50% of cells, B- PAS≥50% of cells and C- PAS-negative. Additionally, liver sections were examined for the occurrence of microvesicular fatty changes, as well as the kidney sections for inflammatory infiltration, reduction of Bowman's spaces and changes in renal tubules. Statistical analysis was performed in Graphpad Prism 5.0b. Data for each organ analysis were expressed qualitatively and quantitatively, and normal distribution was verified (D'Agostin and Person). t-tests and chi-square tests were performed, and non-parametric data were evaluated using the Mann-Whitney or Kruskal-Wallis test for pair wise comparisons of groups. The significance level was set at 5%.

[2] = in vitro; details: human
Experimental: (§4) The hemolytic rate was calculated using 0.05% saponin as the positive control for hemolysis of human RBC, which was considered 100% [24], [25]. The diagnosis of G6PD deficiency was performed using a technique based on the principle that hemoglobin oxidized to methemoglobin, by the action of sodium nitrite, is catalyzed by an enzyme, in the presence of methylene blue [26]. […] All participants signed a written informed consent before blood collection. The consent was approved by the Ethics Committee of CEPEM.

[3] = In vitro hemolysis assay; details: human
Experimental: as §4

[4] = cited from earlier work
[5] = system: P. gallinaceum; assay: Inhibition of P. gallinaceum sporogony in Aedes fluviatilis mosquitoes fed on infected, treated chickens; assay type: in vivo; details: single oral dose 1.0 mg/kg (Phe-Ala-PQ: 0.19 mg/kg PQ); for Mean oocyts ±SD/ in times 4 h: chicken, mosquitoes fed 4 h after treatment
Experimental: One-week-old chicks (Gallus gallus domesticus) previously inoculated with 10^6 RBC infected with P. gallinaceum, had their parasitemia monitoried daily, by examining Giemsa-stained thin blood smears; they were used to feed the mosquitoes when reaching 2.8 – 3.8%. The A. fluviatilis mosquitoes were kept for 24 h without sugar in their diet, to improve their ability to take the blood meal from chickens. For each compound the same infected chicken was offered twice to feed clean mosquitoes (30 female mosquitoes per group), before treatment, (group 0 h). Drug treatment was immediately performed by gavage and the treated chicken was offered again to blood-feed another group of mosquitoes (test group) 4 h after treatment of the chicken with the drug. […] In each experiment, another non-treated P. gallinaceum-infected chick was used twice (time 0 h and 4 h later) to feed clean mosquitoes, serving as an internal control.
Seven days after the blood meal, the mosquitoes were dissected and their midgut was removed under a stereomicroscope (100x), stained with 0.5% mercurochrome, and examined under a light microscope (40x) for the oocyst count. […] Two criteria were used to evaluate drug activity: the total number of infected mosquitoes and the mean number of oocysts, based on the examination of 20 mosquitoes in each group.

[6] = system: male Wistar rats; assay: Hemogram of rats treated with multiple doses; details: gavage four times a day for 4 days, PQ 2.44 mg/kg free base, Phe-Ala-PQ 9.00 mg/kg, mean (CI 95)
Experimental: as §1
(§2) In biochemical analysis, aspartate aminotransferase (AST), alanine aminotransferase (ALT), gamma-glutamyltransferase (GGT), bilirubin, creatinine and urea kits were purchased from LabTest Diagnostica SA (Lagoa Santa,Minas Gerais, Brazil). Alkaline phosphatase (ALP) was assayed by the conversion of p-nitrophenyl phosphate to p-nitrophenol in a kinetic reaction, measured with a spectrophotometer at 405 nm. To determine the level of methemoglobin in relation to oxyhemoglobin, we used the method described by Naoum and collaborators. The blood was hemolyzed and the hemoglobin stabilized in 60 mM phosphate buffer, pH 6.8. The levels of methemoglobin and oxyhemoglobin were determined by spectrophotometric absorption at 630 and 540 nm. The total and differential white blood cell (WBC) counts were performed using a Neubauer chamber and blood smears, respectively. The hematocrit was determined using conventional method by microcapillary centrifugation.

[7] = Partition coefficient (log P) by HPLC method, OECD guideline
Experimental: A Waters Alliance HPLC system equipped with a UV-Vis 2487 detector was employed. The chromatographic analysis was performed on a Symmetry C18 HPLC column (4.6 mm×250 mm, 5 µm particle size) and the mobile phase was methanol:water (70∶30), with detection at 256 nm. A flow rate of 1.0 mL/min was used and 50-µL samples were injected into the chromatographic system. The run time was approximately 15 min. The analytical curve was constructed on the basis of the retention time of the standards (purchased from Sigma Aldrich, NJ, USA) butanone, acetanilide, phenol, phenacetin, benzene, toluene, chlorobenzene and thymol, dissolved in mobile phase at a concentration of 50 µg/mL. The substances were analyzed in triplicate and the average retention time for each standard was used. The capacity factor (k) was obtained by the equation [20]: k = (tR - t0) /t0, where tR is the retention time of the test substance and t0 the dead-time. The log k values were correlated with the partition coefficients of the standards for construction of the analytical curve. […] The coefficient of determination (r^2) was also calculated to evaluate the linearity of the analytical curve.

[8] = system: male Wistar rats; assay: Biochemical analysis of serum of rats treated with multiple doses; details: rat serum; gavage four times a day for 4 days; PQ diphosphate 2.44 mg/kg free base, Phe-Ala-PQ 9.00 mg/kg; mean
Experimental: as §1, §2

[9] = system: monkey kidney cell line (BGM); assay: In vitro cytotoxicity, MTT assay, BGM cells; details: MTT, 24 h incubation
Experimental: (§3) The HepG2 (ATCC HB-8065) was originally received from the New University of Lisbon, Portugal, and BGM received as a gift from the Federal University of Minas Gerais and originally purchased from Rio de Janeiro Cell Bank (BCRJ 0049). When confluent, the cells were washed with RPMI culture medium, then trypsinized, distributed in a flat-bottom 96-well plate (5×10^3 cells/well), and incubated for 18 h at 37°C for cell adherence as described elsewhere. The compound (20 µL) was added to each well at various concentrations (1-1000 µg/mL) and the plate incubated for 24 h in a 5% CO2 atmosphere at 37°C. MTT [3-(4,5-dimethylthiazol-2-yl)-2,5-diphenyltetrazolium bromide] (5 mg/mL; 20 µL/well) was added to evaluate mitochondrial viability, and the plates were incubated again for 3 h, under the same culture conditions. The supernatant was carefully removed, and 100 µL of DMSO were added with mixing to dissolve the formazan crystals formed. The optical density was determined at 570 and 630 nm (background) (SpectraMax 340PC 384, Molecular Devices). Cell viability was expressed as the percentage of the control absorbance of the untreated cells after subtracting the appropriate background. The minimum lethal dose for 50% of the cells (MLD50) was determined as previously described.

[10] = system: human hepatoma cell line (HepG2); assay: In vitro cytotoxicity, MTT assay, HepG2 cells; details: MTT, 24 h incubation
Experimental: as §3

In the case of `COc1cc(NC(C)CCCN)c2ncccc2c1` (centres unmarked) [PQ, Primaquine], the “Liver glycogen: positive cells (<50%), periportal region” value [1] is reported as “decrease”, the “Liver glycogen: PAS-positive cells (total), periportal region” value ([1]; compared to the control group) is reported as “more PAS-positive cells (total) compared to the control group” and the “Histopathological analysis of the kidney” value ([1]; hematoxylin/eosin) is reported as “normal structures, with no alteration in the glomeruli and renal tubules”. The hemolysis at 31 µg/mL [2] was 0%, the hemolysis at 62 µg/mL [2] was 0% and the hemolysis at 1000 µg/mL [2] was 100%. The hemolysis at 125 µg/mL [3] was 0%, the hemolysis at 250 µg/mL [3] was 50% and the hemolysis at 500 µg/mL [3] was 87.8%. The plasma half-life [4] was “ca. 6 h”, the “Mean oocyts ±SD/ in times 4 h” value [5] was 2.1 and the “Mean oocyts ±SD/ in times 4 h” value ([5]; listed as PQ diphosphate) was 2.1±4.3. For the same compound, the “Reduction in oocyst number, %” value ([5]; 4 h vs 0 h) was 96%, the “Sporogony inhibition, %” value ([5]; 4 h vs 0 h) was 50% and the “Eosinophils Absolute (No. cells)” value [6] was 97 (43–151) No. cells. The “Eosinophils Relative (%)” value [6] was 2.10 (0.77–3.42) %, the Hematocrit [6] was 46 (44–48) % and the Leukocytes [6] was 4840 (3973–5706) /mm^3. The “Lymphocytes Absolute (No. cells)” value [6] was 4123 (3200–5046) No. cells, the “Lymphocytes Relative (%)” value [6] was 83.9 ^a (78.9–88.9) % and the Methemoglobin [6] was 3.89 (3.39–4.40) %. The “Monocytes Absolute (No. cells)” value [6] was 96 ^a (52–140) No. cells, the “Monocytes Relative (%)” value [6] was 2.30 ^a (0.86–3.73) % and the “Neutrophils Band Absolute (No. cells)” value [6] was 6 (0–19) No. cells. The “Neutrophils Band Relative (%)” value [6] was 0.11 (0.00–0.36) %, the “Neutrophils Segmented Absolute (No. cells)” value [6] was 516 ^a (403–629) No. cells and the “Neutrophils Segmented Relative (%)” value [6] was 11.6 ^a (8.15–15.0) %. The chromatographic logP [7] was 2.1, the ALP [8] was 125.6 U/L and the ALT [8] was 91.81 ^a U/L. The AST [8] was 64.99 ^a U/L, the Creatinine [8] was 0.986 mg/dL and 0.986 ^a mg/dL and the Direct bilirubin [8] was 0.228 mg/dL. For the same compound, the GGT [8] was 22.88 ^a U/L, the Total bilirubin [8] was 0.797 mg/dL and 0.797 ^a mg/dL and the Urea [8] was 18.51 mg/dL. For the same compound, the “MDL50 (Mean±SD) BGM” value [9] was 263 µg/mL and 263 ± 4 µg/mL and the “MDL50 (Mean±SD) HepG2” value [10] was 180 µg/mL and 180 ± 24 µg/mL.
